We go through two molecules from US11530221B2, “Pyrimido[4,5-d]pyrimidin-2-one derivatives as protein kinase inhibitors” (KOREA INSTITUTE OF SCIENCE AND TECHNOLOGY, priority 2019, dated 2022).

Common to all, as to type: biochemical
For test [1], the target named is T1, LCK (Homo sapiens, UniProt P06239). As to the kind of experiment: IC50 inhibitory activity against LCK kinase. As to the method:
(§1) IC50 values were calculated by measuring the inhibitory activity against LCK, c-Src, p38a/MAPK14, ABL1, DDR1 and FGR kinases of the compounds of the present invention.

Test [2] deals with T2, c-Src (Homo sapiens, UniProt P12931). As to the kind of experiment: IC50 inhibitory activity against c-Src kinase. As for the experimental part: as §1
T2 sequence (P12931 whole entry): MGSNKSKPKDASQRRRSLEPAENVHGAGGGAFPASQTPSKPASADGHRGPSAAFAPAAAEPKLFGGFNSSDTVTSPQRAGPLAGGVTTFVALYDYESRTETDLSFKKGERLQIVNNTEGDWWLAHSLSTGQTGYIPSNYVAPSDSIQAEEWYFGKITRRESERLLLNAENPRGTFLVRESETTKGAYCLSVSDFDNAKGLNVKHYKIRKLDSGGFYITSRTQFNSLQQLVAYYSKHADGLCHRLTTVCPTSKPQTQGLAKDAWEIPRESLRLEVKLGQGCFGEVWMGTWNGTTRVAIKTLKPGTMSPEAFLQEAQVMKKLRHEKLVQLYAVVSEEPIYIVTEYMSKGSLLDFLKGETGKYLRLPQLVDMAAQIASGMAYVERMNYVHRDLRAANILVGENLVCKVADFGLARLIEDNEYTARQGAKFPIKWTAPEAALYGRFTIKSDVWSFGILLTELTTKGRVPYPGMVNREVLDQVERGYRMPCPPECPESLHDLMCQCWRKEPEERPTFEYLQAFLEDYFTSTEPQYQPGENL
The target in the next test is p38a/MAPK14 (Homo sapiens, UniProt Q16539). Kind of test: IC50 inhibitory activity against p38a/MAPK14 kinase. As to the method: as §1
p38a/MAPK14, sequence (Q16539 whole entry): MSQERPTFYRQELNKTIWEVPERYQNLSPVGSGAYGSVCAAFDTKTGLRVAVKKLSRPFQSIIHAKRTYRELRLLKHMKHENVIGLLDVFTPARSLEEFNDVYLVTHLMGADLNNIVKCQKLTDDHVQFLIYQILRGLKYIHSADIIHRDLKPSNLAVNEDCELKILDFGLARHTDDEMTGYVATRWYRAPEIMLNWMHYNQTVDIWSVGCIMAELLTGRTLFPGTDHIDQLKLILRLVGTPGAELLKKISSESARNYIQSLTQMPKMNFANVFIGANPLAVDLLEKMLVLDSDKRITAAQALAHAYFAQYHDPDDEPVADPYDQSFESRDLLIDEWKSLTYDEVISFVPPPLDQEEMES
The next test has as its target ABL1 (Homo sapiens, UniProt P00519). As to the kind of experiment: IC50 inhibitory activity against ABL1 kinase. As to the method: as §1
A further test has as its target ABL1 (T315I) (Homo sapiens, UniProt P00519, T315I). As to the kind of experiment: IC50 inhibitory activity against ABL1 (T315I) kinase. As for the experimental part: as §1
In test [3] the target is T3, DDR1 (Homo sapiens, UniProt Q08345). As to the kind of experiment: IC50 inhibitory activity against DDR1 kinase. As for the experimental part: as §1
T3 sequence (Q08345 19-913): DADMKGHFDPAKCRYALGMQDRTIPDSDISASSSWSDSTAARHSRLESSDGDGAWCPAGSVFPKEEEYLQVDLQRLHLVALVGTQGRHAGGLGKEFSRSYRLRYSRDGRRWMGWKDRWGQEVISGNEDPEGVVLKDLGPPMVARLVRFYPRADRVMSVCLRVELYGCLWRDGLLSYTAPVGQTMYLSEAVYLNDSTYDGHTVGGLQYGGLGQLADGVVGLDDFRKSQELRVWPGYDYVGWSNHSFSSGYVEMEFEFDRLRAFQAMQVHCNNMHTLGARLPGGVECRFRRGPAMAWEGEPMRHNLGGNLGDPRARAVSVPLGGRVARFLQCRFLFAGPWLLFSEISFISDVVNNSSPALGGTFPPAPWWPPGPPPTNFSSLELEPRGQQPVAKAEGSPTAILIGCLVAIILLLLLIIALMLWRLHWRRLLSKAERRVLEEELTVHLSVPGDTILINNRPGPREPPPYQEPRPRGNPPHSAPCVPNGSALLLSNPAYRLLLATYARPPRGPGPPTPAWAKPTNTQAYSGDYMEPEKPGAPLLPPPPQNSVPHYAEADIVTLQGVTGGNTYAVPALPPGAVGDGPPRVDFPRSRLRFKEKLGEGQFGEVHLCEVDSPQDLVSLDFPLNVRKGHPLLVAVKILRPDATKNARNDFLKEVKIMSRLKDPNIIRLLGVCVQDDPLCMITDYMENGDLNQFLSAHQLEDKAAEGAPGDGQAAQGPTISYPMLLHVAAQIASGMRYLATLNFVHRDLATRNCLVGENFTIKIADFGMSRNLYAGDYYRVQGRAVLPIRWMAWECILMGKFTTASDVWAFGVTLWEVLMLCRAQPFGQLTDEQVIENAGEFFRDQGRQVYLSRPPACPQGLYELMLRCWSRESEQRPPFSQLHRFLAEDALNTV
Test [4] concerns the target T4, FGR (Homo sapiens, UniProt P09769). Kind of test: IC50 inhibitory activity against FGR kinase. As for the experimental part: as §1
For test [5], the target named is T1, LCK. Kind of test: Full kinase panel, single concentration: LCK. The settings on record: read-out: residual enzyme activity (%) LCK. As to the method:
(§2) In order to measure the inhibitory activity (% inhibitory capacity) against protein kinases of the compounds of the present invention, biochemical assays were performed using a full kinase panel.
(§3) The experimental compounds used herein were the compounds of Compound Nos. 1 and 33. The residual enzyme activity (%) was calculated by measuring the inhibitory activity against kinases upon treatment with the experimental compound at a single concentration of 1 μM. Kinases having calculated residual enzyme activity (%) of 30% or less (that is, inhibition of 70% or more) are shown below.

For test [6], the target named is T3, DDR1. As to the kind of experiment: Full kinase panel, single concentration: DDR1. Particulars: read-out: residual enzyme activity (%) DDR1. As for the experimental part: as §2, §3
Test [7] deals with T4, FGR. As to the kind of experiment: Full kinase panel, single concentration: FGR. The settings on record: read-out: residual enzyme activity (%) FGR. As to the method:
as §2, §3

For the next test, the target named is T5, BMX (Homo sapiens, UniProt P51813).
T5 sequence (P51813 1-675): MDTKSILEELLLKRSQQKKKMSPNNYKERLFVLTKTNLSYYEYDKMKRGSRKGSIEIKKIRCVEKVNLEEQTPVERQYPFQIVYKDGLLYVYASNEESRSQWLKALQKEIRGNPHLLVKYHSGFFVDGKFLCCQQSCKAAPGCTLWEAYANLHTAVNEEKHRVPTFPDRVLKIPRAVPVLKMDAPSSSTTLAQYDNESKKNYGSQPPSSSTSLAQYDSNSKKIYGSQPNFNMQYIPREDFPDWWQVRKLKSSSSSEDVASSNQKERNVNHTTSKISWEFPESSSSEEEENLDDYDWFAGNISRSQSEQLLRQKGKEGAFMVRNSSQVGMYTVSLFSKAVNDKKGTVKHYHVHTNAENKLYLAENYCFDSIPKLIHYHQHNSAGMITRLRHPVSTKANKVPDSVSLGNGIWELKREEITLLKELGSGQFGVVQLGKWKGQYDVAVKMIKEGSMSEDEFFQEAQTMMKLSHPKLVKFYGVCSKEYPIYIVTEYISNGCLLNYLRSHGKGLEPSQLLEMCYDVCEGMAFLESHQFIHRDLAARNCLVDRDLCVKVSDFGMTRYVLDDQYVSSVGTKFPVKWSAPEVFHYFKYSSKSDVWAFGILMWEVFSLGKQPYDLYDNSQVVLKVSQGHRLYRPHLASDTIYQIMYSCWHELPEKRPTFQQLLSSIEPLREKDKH
As to the kind of experiment: Full kinase panel, single concentration: BMX. The settings on record: read-out: residual enzyme activity (%) BMX. As to the method:
as §2, §3

In the next test the target is ABL2 (Homo sapiens, UniProt P42684). Kind of test: Full kinase panel, single concentration: ABL2. The settings on record: read-out: residual enzyme activity (%) ABL2. As to the method:
as §2, §3

The target in a further test is BLK (Homo sapiens, UniProt P51451). As to the kind of experiment: Full kinase panel, single concentration: BLK. The settings on record: read-out: residual enzyme activity (%) BLK. As to the method: as §2, §3
In test [8] the target is T6, LYN (Homo sapiens, UniProt P07948). As to the kind of experiment: Full kinase panel, single concentration: LYN. The settings on record: read-out: residual enzyme activity (%) LYN. As for the experimental part:
as §2, §3

The target in the next test is T7, DDR2 (Homo sapiens, UniProt Q16832).
T7 sequence (Q16832 22-855): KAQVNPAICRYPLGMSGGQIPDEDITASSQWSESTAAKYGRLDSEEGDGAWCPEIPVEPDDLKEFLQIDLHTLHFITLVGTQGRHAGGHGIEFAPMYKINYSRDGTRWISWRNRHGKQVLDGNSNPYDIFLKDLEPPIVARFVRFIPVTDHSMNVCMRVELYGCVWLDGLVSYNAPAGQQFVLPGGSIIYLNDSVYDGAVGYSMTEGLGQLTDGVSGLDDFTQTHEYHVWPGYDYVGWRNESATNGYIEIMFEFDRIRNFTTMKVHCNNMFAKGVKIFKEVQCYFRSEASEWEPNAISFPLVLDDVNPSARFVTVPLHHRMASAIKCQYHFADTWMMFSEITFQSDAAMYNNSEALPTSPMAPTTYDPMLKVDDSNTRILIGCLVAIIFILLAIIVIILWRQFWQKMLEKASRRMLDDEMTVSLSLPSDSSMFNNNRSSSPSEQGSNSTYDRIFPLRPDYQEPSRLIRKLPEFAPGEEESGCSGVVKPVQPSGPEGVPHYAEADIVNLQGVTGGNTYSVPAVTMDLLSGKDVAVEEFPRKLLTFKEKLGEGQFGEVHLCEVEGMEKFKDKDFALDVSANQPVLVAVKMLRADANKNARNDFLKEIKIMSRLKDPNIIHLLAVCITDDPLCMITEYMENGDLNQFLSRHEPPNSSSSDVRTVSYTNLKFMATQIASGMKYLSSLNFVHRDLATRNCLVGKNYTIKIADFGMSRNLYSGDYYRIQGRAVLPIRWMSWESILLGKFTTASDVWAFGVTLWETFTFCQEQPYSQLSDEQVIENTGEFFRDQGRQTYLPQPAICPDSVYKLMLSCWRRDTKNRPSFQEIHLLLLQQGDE
Kind of test: Full kinase panel, single concentration: DDR2. The settings on record: read-out: residual enzyme activity (%) DDR2. As to the method:
as §2, §3

The next test has as its target RAF1 (Homo sapiens, UniProt P04049). As to the kind of experiment: Full kinase panel, single concentration: RAF1. Particulars: read-out: residual enzyme activity (%) RAF1. As to the method:
as §2, §3

Test [9] concerns the target T2, c-Src. As to the kind of experiment: Full kinase panel, single concentration: c-Src. Particulars: read-out: residual enzyme activity (%) c-Src. As for the experimental part:
as §2, §3

The next test addresses CSK (Homo sapiens, UniProt P41240). Kind of test: Full kinase panel, single concentration: CSK. Particulars: read-out: residual enzyme activity (%) CSK. As to the method:
as §2, §3

In another test the target is HCK (Homo sapiens, UniProt P08631). As to the kind of experiment: Full kinase panel, single concentration: HCK. The settings on record: read-out: residual enzyme activity (%) HCK. As to the method:
as §2, §3

Test [10] deals with T6, LYN. Kind of test: IC50 inhibitory activity against LYN kinase.

Read-outs that look alike come from different tables or passages of the source. Square brackets hold non-standard residues; d marks the D form. Peptide text beside a SMILES is read from it. * marks the point of attachment. X1 = Cc1ccc(Nc2ncc3c(n2)N(C)C(=O)N(c2cc(C(=O)*)ccc2C)C3)cn1; Aib = CC(C)(N)C(=O)O

T6 sequence (P07948 whole entry): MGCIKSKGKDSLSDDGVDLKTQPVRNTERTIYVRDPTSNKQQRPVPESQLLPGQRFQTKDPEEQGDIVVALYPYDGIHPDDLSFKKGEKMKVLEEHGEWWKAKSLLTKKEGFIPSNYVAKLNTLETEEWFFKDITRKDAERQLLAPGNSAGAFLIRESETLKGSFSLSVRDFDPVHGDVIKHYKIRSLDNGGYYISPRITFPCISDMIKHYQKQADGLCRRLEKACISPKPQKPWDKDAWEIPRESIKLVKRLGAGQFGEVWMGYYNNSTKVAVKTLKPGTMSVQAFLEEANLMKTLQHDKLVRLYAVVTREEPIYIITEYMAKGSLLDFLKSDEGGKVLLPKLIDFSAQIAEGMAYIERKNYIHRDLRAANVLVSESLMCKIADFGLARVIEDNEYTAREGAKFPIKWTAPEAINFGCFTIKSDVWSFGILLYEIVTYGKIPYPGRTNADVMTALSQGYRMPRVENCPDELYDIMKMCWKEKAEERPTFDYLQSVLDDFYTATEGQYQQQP
T1 sequence (P06239 whole entry): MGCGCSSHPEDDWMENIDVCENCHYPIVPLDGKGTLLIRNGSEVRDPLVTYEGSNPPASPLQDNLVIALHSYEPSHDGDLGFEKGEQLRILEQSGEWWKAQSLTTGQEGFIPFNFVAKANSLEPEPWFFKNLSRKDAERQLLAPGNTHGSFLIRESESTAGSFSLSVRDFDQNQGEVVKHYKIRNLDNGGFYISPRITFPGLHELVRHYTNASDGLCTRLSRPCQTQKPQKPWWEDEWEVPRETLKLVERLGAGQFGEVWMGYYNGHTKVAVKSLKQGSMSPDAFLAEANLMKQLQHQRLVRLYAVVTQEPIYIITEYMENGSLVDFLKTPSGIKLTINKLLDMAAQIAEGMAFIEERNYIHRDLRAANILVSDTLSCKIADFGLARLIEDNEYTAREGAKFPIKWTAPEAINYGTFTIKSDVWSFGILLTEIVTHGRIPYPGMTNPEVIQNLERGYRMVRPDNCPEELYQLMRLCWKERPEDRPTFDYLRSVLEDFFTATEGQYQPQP
T4 sequence (P09769 whole entry): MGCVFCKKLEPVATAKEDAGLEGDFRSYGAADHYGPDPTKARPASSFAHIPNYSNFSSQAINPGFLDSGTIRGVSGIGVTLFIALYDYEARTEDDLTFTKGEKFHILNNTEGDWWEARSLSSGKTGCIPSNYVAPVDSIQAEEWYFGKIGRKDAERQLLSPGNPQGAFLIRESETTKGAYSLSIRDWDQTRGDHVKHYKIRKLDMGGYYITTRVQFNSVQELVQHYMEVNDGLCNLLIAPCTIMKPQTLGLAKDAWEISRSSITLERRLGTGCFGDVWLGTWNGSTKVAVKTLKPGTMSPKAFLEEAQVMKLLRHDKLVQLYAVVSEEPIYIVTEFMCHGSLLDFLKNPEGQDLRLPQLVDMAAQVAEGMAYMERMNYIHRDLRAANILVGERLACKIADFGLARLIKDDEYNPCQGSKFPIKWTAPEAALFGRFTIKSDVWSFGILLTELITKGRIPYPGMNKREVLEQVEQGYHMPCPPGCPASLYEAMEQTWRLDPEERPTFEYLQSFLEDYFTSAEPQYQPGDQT
CSK, sequence (P41240 whole entry): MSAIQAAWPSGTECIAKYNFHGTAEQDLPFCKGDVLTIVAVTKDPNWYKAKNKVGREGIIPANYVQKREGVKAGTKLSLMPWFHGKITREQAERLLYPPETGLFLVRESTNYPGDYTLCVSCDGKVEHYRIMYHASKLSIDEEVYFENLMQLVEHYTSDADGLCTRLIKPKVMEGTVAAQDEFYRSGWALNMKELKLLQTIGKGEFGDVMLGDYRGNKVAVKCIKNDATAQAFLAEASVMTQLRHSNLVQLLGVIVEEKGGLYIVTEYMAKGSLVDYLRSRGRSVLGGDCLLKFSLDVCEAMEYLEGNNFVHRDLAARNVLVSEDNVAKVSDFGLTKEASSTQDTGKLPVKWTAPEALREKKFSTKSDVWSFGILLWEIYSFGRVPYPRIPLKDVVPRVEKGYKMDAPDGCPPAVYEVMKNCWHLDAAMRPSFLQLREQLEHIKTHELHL
RAF1, sequence (P04049 whole entry): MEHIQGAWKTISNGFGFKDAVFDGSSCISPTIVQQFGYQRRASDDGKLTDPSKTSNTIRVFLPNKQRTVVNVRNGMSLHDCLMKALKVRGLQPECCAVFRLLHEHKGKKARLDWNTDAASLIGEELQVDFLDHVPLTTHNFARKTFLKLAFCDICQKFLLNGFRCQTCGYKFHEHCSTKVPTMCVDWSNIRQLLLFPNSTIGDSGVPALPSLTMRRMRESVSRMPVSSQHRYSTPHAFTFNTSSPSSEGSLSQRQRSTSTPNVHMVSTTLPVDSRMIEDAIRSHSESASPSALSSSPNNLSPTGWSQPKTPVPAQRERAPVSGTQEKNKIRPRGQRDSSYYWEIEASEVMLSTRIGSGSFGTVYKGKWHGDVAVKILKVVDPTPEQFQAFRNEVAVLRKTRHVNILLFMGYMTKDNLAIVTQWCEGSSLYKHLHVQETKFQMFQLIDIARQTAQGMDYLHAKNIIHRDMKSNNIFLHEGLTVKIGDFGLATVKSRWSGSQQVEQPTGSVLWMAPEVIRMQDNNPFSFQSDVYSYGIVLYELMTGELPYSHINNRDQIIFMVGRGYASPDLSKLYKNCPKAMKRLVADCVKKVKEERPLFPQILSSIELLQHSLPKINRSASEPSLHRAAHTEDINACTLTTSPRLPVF
HCK, sequence (P08631 whole entry): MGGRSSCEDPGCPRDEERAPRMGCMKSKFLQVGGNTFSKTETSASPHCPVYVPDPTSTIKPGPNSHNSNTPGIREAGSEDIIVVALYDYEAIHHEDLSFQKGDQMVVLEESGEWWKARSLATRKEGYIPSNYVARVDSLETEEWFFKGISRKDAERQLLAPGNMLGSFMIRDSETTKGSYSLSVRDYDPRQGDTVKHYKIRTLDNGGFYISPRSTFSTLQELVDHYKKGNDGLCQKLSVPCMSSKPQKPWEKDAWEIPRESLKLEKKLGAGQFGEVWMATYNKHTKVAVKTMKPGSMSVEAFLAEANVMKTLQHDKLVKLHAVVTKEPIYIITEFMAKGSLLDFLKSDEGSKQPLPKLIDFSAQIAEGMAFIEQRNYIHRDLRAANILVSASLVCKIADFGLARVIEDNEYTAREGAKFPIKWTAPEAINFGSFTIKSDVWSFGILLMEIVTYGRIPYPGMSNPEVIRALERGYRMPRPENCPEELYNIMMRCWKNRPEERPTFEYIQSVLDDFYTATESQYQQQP

On to `Cc1ccc(Nc2ncc3c(n2)N(C)C(=O)N(c2cc(C(=O)N[C@H](C(=O)N4CCC[C@H]4C(=O)NC(C)(C)C(=O)N[C@@H](CC(C)C)C(=O)N(C)C)C(C)C)ccc2C)C3)cn1` [Example 1, (S)—N-(1-(((S)-1-(dimethylamino)-4-methyl-1-oxopentan-2-yl)amino)-2-methyl-1-oxopropan-2-yl)-1-((4-methyl-3-(1-methyl-7-((6-methylpyridin-3-yl)amino)-2-oxo-1,4-dihydropyrimido[4,5-d]pyrimidin-3(2H)-yl)benzoyl)-L-valyl)pyrrolidine-2-carboxamide] (X1-VP[Aib]L-NMe2), for which the IC50 against LCK [1] is 1 to 200 nM; on c-Src [2], above 600 nM; on p38a/MAPK14 it was above 600 nM; on ABL1 it was 200 to 400 nM; at ABL1 (T315I), above 600 nM; at DDR1 [3] it was 1 to 200 nM. On FGR [4], this molecule had an IC50 of 1 to 200 nM. Also, the remaining activity at 1 µM at LCK [5], at DDR1 [6], on FGR [7], on BMX, on ABL2 and at BLK was at most 30% in each case. In addition, the remaining activity at 1 µM on LYN [8], on DDR2, on RAF1, on c-Src [9], at CSK and at HCK was at most 30% in each case.

Consider `Cc1ccc(Nc2ncc3c(n2)N(C)C(=O)N(c2cc(NC(=O)c4ccc5c(c4)N(Cc4ccccc4)C(=O)[C@H](CC(C)C)N=C5c4ccccc4)ccc2C)C3)cn1` [Example 33, (S)-1-benzyl-3-isobutyl-N-(4-methyl-3-(1-methyl-7-((6-methylpyridin-3-yl)amino)-2-oxo-1,4-dihydropyrimido[4,5-d]pyrimidin-3(2H)-yl)phenyl)-2-oxo-5-phenyl-2,3-dihydro-1H-benzo[e][1,4]diazepine-8-carboxamide], for which the IC50 is 1 to 200 nM on LCK [1] (read-out: LCK IC50); 400 to 600 nM at c-Src [2] (read-out: c-Src IC50); above 600 nM on p38a/MAPK14 (read-out: p38a/MAPK14 IC50); 400 to 600 nM at ABL1 (read-out: ABL1 IC50); above 600 nM on ABL1 (T315I) (read-out: ABL1 (T315I) IC50); 1 to 200 nM at DDR1 [3] (read-out: DDR1 IC50). For the same molecule, the IC50 on FGR [4] (read-out: FGR IC50) and against LYN [10] was 1 to 200 nM each time. The remaining activity at 1 µM on LCK [5] (single concentration of 1 μM), on DDR1 [6] (single concentration of 1 μM), on FGR [7] (single concentration of 1 μM), on BMX (single concentration of 1 μM), at ABL2 (single concentration of 1 μM) and at BLK (single concentration of 1 μM) was at most 30% in each case. The remaining activity at 1 µM at LYN [8] (single concentration of 1 μM), on DDR2 (single concentration of 1 μM), on RAF1 (single concentration of 1 μM), on c-Src [9] (single concentration of 1 μM), on CSK (single concentration of 1 μM) and at HCK (single concentration of 1 μM) was at most 30% each time.
